{
  "source": "patent US20030096237A1",
  "about": "“Determination of the ability of patients to respond to a tumor treatment” (priority 2000, published 2003)",
  "tested_on": "CNCM I-2545",
  "test": "oligonucleotide array analysis of IFN-α modulated gene expression",
  "assay_type": "cell-based, human",
  "description": "All these cell lines were cultured in RPMI medium supplemented with 10% FCS, glutamine (2 mM), sodium pyruvate (1 mM), non-essential amino acids and HEPES buffer (10 mM) (all from GIBCO Life Sciences, Paisley, UK). When confluent, the cells were passaged by trypsinization.\nCultured melanoma cells were harvested by scraping and total cellular RNA was extracted. 10 μg from each sample were used directly as templates for cDNA synthesis using a commercial kit (Roche Molecular Biochemicals, Rotkreuz, Switzerland). The T7 promoter sequence incorporated into the cDNA synthesis primer allowed template amplification and biotin labeling by in vitro transcription using a commercial kit (Affymetrix, Santa Clara, Calif.). After alkaline heat fragmentation […] was hybridised to the array (Affymetrix, Santa Clara, Calif.) and all subsequent steps were performed following standard procedures as supplied with the arrays. Raw data were collected with a confocal laser scanner (Hewlett Packard, Palo Alto, Calif.) using GeneChip software v3.1 (Affymetrix, Santa Clara, Calif.).\nRaw data were normalized based on the total chip signal obtained upon hybridisation of ME15 cell line cDNA. This array was selected because: i) the 5′/3′ intensity ratio of control genes was smaller than 3; ii)>25% of the genes are called “present” by Genechip; iii) the image appearance is homogeneous with low background and no sign of mechanical chip damage.\nThe normalized average difference (nAD) between the signals of the perfect and of the mismatch probesets for each gene was used as the expression level of a given gene. At least one nAD value in a pairwise comparison of data has to exceed 50 to be included. Based on nAD, change factors related to IFN-α exposure were also calculated. Negative nAD values were set to 20 in order to avoid the calculation of artificially high modifications. In order to exclude artefacts, only genes with robust change factors, greater than 2-fold, were included in the analysis. […] Genes were clustered according to their mode of regulation.\nTotal cellular RNA was extracted from the sensitive and resistant melanoma cell lines identified above, reverse transcribed and processed for hybridization to an oligonucleotide array (Hu6800FL, PN 900183) containing probe sets derived from 7000 full-length human genes. Expression levels for each gene were calculated as normalized average difference (nAD, see materials and methods).\nPatterns of genes expressed in IFN-α sensitive and resistant melanoma cell lines were investigated upon 48 hour culture in the presence of IFN-α. CNCM I-2546 and CNCM I-2545 were studied in detail.\nIn Table 2 below, CNCM I-2546 and CNCM I-2545 cultured for 48 hours in the absence or in the presence of 100 U/ml IFN-α were used to assay cytokine modulated gene expression as matched with data obtained in fibrosarcoma cells. This analysis yielded six clusters of genes. […] Data are presented as average difference of signal intensity between match and mismatch probesets.\nIn Table 3 below, CNCM I-2546 and CNCM I-2545 cell lines cultured for 48 hours in the absence or in the presence of 100 U/ml IFN-α were used to identify novel cytokine induced genes whose expression was not found to be modulated in fibrosarcoma cells. Cluster 1 includes genes inducible in the CNCM I-2546 sensitive but not in the CNCM I-2545 resistant cell line. Cluster 2 comprises genes inducible in both lines. Data are presented as average difference of signal intensity between match and mismatch probesets.",
  "key": {"[1]": {"conditions": "CNCM I-2545, IFN-α 100 U/ml 48 hours"}},
  "data": [
    {"substance": "IFN-α", "values": [
      {"measurement": "change factor (CF) D28137 bst-2", "setting": "[1]", "value": 1.38},
      {"measurement": "change factor (CF) D32050 alanyl-trna synthetase", "setting": "[1]", "value": "−0.92"},
      {"measurement": "change factor (CF) D49824 hla-b null allele", "setting": "[1]", "value": "−0.97"},
      {"measurement": "change factor (CF) D50914 EST", "setting": "[1]", "value": "−2"},
      {"measurement": "change factor (CF) D78132 rheb gene, ras-related gtp binding protein gene", "setting": "[1]", "value": 1.88},
      {"measurement": "change factor (CF) HG658 major histocompatibility complex, class 1 c", "setting": "[1]", "value": "−1.6"},
      {"measurement": "change factor (CF) HG1612 macmarcks", "setting": "[1]", "value": "−0.16"},
      {"measurement": "change factor (CF) HG2917 major histocompatibility complex, class i, e", "setting": "[1]", "value": "−0.1"},
      {"measurement": "change factor (CF) J00105 beta-2 microglobulin gene", "setting": "[1]", "value": 0.26},
      {"measurement": "change factor (CF) J00212 leukocyte interferon (ifn-alpha)", "setting": "[1]", "value": "−4.3"},
      {"measurement": "change factor (CF) J03909 gamma-interferon-inducible protein (ip-30)", "setting": "[1]", "value": 2.38},
      {"measurement": "change factor (CF) J04164 interferon-inducible protein 27-sep", "setting": "[1]", "value": 0},
      {"measurement": "change factor (CF) J04182 lysosomal membrane glycoprotein-1 (lamp1)", "setting": "[1]", "value": 6.33},
      {"measurement": "change factor (CF) J04444 cytochrome c-1 gene", "setting": "[1]", "value": 1.56},
      {"measurement": "change factor (CF) K01900 lymphocyte interferon alpha type 201", "setting": "[1]", "value": "−6.8"},
      {"measurement": "change factor (CF) K03515 neuroleukin", "setting": "[1]", "value": "−0.17"},
      {"measurement": "change factor (CF) L07633 interferon-gamma", "setting": "[1]", "value": 11.5},
      {"measurement": "change factor (CF) L13210 mac-2 binding protein", "setting": "[1]", "value": "−0.22"},
      {"measurement": "change factor (CF) L35249 vacuolar h + -atpase mr 56,000 subunit (ho57)", "setting": "[1]", "value": 16.85},
      {"measurement": "change factor (CF) L37043 casein kinase i epsilon", "setting": "[1]", "value": 0.01},
      {"measurement": "change factor (CF) L40387 thyroid receptor interactor (trip14)", "setting": "[1]", "value": "−4.2"},
      {"measurement": "change factor (CF) L42243 ifnar2 gene (interferon receptor)", "setting": "[1]", "value": "−2.1"},
      {"measurement": "change factor (CF) M13755 interferon-induced 17-kda/15-kda protein", "setting": "[1]", "value": 0.55},
      {"measurement": "change factor (CF) M19650 2′,3′-cyclic nucleotide 3prime-phosphodiesterase", "setting": "[1]", "value": "−0.38"},
      {"measurement": "change factor (CF) M30818 interferon-induced cellular resistance mediator protein", "setting": "[1]", "value": 0},
      {"measurement": "change factor (CF) M31013 nonmuscle myosin heavy chain (nmhc)", "setting": "[1]", "value": "−0.43"},
      {"measurement": "change factor (CF) M34338 spermidine synthase", "setting": "[1]", "value": "−0.7"},
      {"measurement": "change factor (CF) M60784 ul snrnp-specific protein", "setting": "[1]", "value": 2.59},
      {"measurement": "change factor (CF) M65028 heterogeneous nuclear ribonucleoprotein a/b", "setting": "[1]", "value": 1.29},
      {"measurement": "change factor (CF) M79462 pml-1", "setting": "[1]", "value": "−9.05"},
      {"measurement": "change factor (CF) M92642 alpha-1 type xvi collagen (col16a1)", "setting": "[1]", "value": 4.75},
      {"measurement": "change factor (CF) M94880 mhc class i (hla-a*8001)", "setting": "[1]", "value": "−0.31"},
      {"measurement": "change factor (CF) M97935 transcription factor isgf-3", "setting": "[1]", "value": "−2.6"},
      {"measurement": "change factor (CF) M98343 amplaxin (ems1)", "setting": "[1]", "value": 2.15},
      {"measurement": "change factor (CF) S81914 iex-1 = radiation-inducible immediate-early gene", "setting": "[1]", "value": 0.05},
      {"measurement": "change factor (CF) U01824 glutamate/aspartate transporter", "setting": "[1]", "value": "−8.69"},
      {"measurement": "change factor (CF) U09579 melanoma differentiation associated (mda-6)", "setting": "[1]", "value": 0},
      {"measurement": "change factor (CF) U18009 chromosome 17q21 clone lf113", "setting": "[1]", "value": "−0.59"},
      {"measurement": "change factor (CF) U18018 ela enhancer binding protein (ela-f)", "setting": "[1]", "value": 0.15},
      {"measurement": "change factor (CF) U22970 16-jun gene, interferon-inducible peptide (6-16)", "setting": "[1]", "value": 0.2},
      {"measurement": "change factor (CF) U41515 dss1", "setting": "[1]", "value": 5.15},
      {"measurement": "change factor (CF) U47025 fetal brain glycogen phosphorylase b", "setting": "[1]", "value": "−0.45"},
      {"measurement": "change factor (CF) U50327 protein kinase c substrate 80k-h gene (prkcsh)", "setting": "[1]", "value": "−0.7"},
      {"measurement": "change factor (CF) U50648 interferon-inducible rna-dependent protein kinase (pkr)", "setting": "[1]", "value": "−1.3"},
      {"measurement": "change factor (CF) U51127 interferon regulatory factor 5", "setting": "[1]", "value": "−1.88"},
      {"measurement": "change factor (CF) U52513 rig-g", "setting": "[1]", "value": "−13.45"},
      {"measurement": "change factor (CF) U53830 interferon regulatory factor 7a", "setting": "[1]", "value": "−4.15"},
      {"measurement": "change factor (CF) U61263 acetolactate synthase homolog", "setting": "[1]", "value": "−0.36"},
      {"measurement": "change factor (CF) U65579 mitochondrial nadh dehydrogenase-ubiquinone", "setting": "[1]", "value": "−0.01"},
      {"measurement": "change factor (CF) U65932 extracellular matrix protein 1 (ecm1)", "setting": "[1]", "value": "−1.34"},
      {"measurement": "change factor (CF) U69126 fuse binding protein 2 (fbp2)", "setting": "[1]", "value": 0.39},
      {"measurement": "change factor (CF) U70063 human acid ceramidase", "setting": "[1]", "value": 2.48},
      {"measurement": "change factor (CF) U72206 guanine nucleotide regulatory factor (lfp40)", "setting": "[1]", "value": "−0.47"},
      {"measurement": "change factor (CF) U72882 interferon-induced leucine zipper protein (ifp35)", "setting": "[1]", "value": "−3.63"},
      {"measurement": "change factor (CF) U78525 human eukaryotic translation initiation factor (eif3)", "setting": "[1]", "value": 1.25},
      {"measurement": "change factor (CF) U91316 acyl-coa thioester hydrolase", "setting": "[1]", "value": 0.69},
      {"measurement": "change factor (CF) X04412 plasma gelsolin", "setting": "[1]", "value": 0},
      {"measurement": "change factor (CF) X07730 prostate specific antigen", "setting": "[1]", "value": "−1.75"},
      {"measurement": "change factor (CF) X15949 interferon regulatory factor-2 (irf-2)", "setting": "[1]", "value": 0},
      {"measurement": "change factor (CF) X57351 1-8d gene from interferon-inducible gene family", "setting": "[1]", "value": 0.09},
      {"measurement": "change factor (CF) X57522 ring4 cdna", "setting": "[1]", "value": "−1.92"},
      {"measurement": "change factor (CF) X67325 p27", "setting": "[1]", "value": 0},
      {"measurement": "change factor (CF) X70848 protein phosphatase 1, catalytic subunit", "setting": "[1]", "value": 8.42},
      {"measurement": "change factor (CF) X76538 mpv17", "setting": "[1]", "value": "−0.31"},
      {"measurement": "change factor (CF) X90846 mixed lineage kinase 2", "setting": "[1]", "value": "−4.95"},
      {"measurement": "change factor (CF) X95325 dna binding protein a variant", "setting": "[1]", "value": "−1.51"},
      {"measurement": "change factor (CF) X96401 rox protein", "setting": "[1]", "value": "−1.76"},
      {"measurement": "change factor (CF) Y00264 amyloid a4 precursor", "setting": "[1]", "value": 0.09},
      {"measurement": "change factor (CF) Z26491 gene catechol o-methyltransferase", "setting": "[1]", "value": "−0.31"},
      {"measurement": "change factor (CF) Z47055 farnesyl pyrophosphate synthetase like", "setting": "[1]", "value": 1.02},
      {"measurement": "change factor (CF) Z56281 interferon regulatory factor 3", "setting": "[1]", "value": "−2"},
      {"measurement": "nAD D28137 bst-2", "setting": "Table 3, CNCM I-2545 (+) IFN-α 100 U/ml 48 hours, (−) 37", "value": 88},
      {"measurement": "change factor (CF) D28137 bst-2", "setting": "Table 3, CNCM I-2545, IFN-α 100 U/ml 48 hours", "value": 1.38}
    ]}
  ]
}
